Where “and” joins values, the source holds several entries; their conditions need not be identical. Equal entries are not always repeated.

This assay has as its system Erwinia amylovara. Kind of assay: Measuring the efficiency against fire blight on inoculated apple blossoms. Type of assay: in vivo. To be noted: 0.06 % by weight in water (positive control); apple blossoms sprayed 1 h after inoculation, 6 days, vs water control. As to the method: For measuring the efficiency of the aqueous compositions, 24 blossoms of the apple varieties Braeburn, Jona Gold and Gala are placed in sugar solution and inoculated with a suspension of Erwinia amylovara at 10^6 bacterial cells. One hour after inoculation, the blossoms are sprayed, respectively, with the composition to be tested or with water, serving as a negative control, until completely wetted. These blossoms are incubated for 6 days at 20 to 23° C. and at a relative humidity of 100%.
The efficiency specifies the decrease of infested blossoms utilizing the composition to be tested in comparison to blossoms, which were treated with water only. All tests are conducted three to six times, and from the measured data the empirical mean of the efficiency, as well as the empirical standard deviation σ are calculated, whereby the standard deviation σ represents […] of the data from the arithmetic mean of the efficiency.

`[H]/N=C(/N)N[C@H]1[C@H](O)[C@@H](O)[C@H](O[C@@H]2O[C@@H](C)[C@](O)(C=O)[C@H]2O[C@@H]2O[C@@H](CO)[C@H](O)[C@@H](O)[C@@H]2NC)[C@@H](N/C(N)=N\[H])[C@@H]1O` [streptomycin]: the mean of efficiency was 74% and 70% and 75%.

Values taken from patent US9149043B2, “Compositions and method for preventing and treating fire blight” (priority 2009, dated 2015).
